{"source": "patent US20100062939A1", "about": "“Herbicide/Safener Combination Comprising Dimethoxytriazinyl-Substituted Difluoromethanesulfonylanilides” (BAYER CROPSCIENCE AG, priority 2008, published 2010)", "assay_type_in_all_cases": "in vivo", "key": {"wheat (cultivar: Triso)": {"tested_on": "wheat (cultivar: Triso)", "experiment": "Crop plant compatibility, post-emergence, wheat", "details": "individual compound, no safener", "experimental": "(§1) Seeds of crop plants were placed in sandy loam and then covered with soil. The pots were placed in a greenhouse and kept under good growth conditions for the crop plants. Two weeks after sowing, the test plants were treated at the 1-3 leaf stage. The active compounds of components (A) and (B), formulated in the form of wettable powders, were then sprayed as aqueous suspensions at various dosages onto the green parts of the plants, using an application rate of 300 l of water/ha (converted).\n(§2) The visual scoring of the herbicidal effects in the combination with or without safener was carried out after the number of days stated in the tables (DAT=days after treatment). Scoring was carried out in percent in comparison to the untreated control plants (herbicidal activity in %). 0%=no herbicidal activity, 100%=complete herbicidal activity=complete kill.\n(§3) The safener action was calculated by comparing the herbicidal activity in % of the herbicide combination without (individual compound) and with safener (combination). The difference of the herbicidal activity in % between the individual compound and the combination was then calculated in percent (safener action in %): 0%=no improvement by addition of safener, 100%=complete improvement by addition of safener=maximum crop plant compatibility."}, "[1]": {"tested_on": "barley (cultivar: Adonis)", "experiment": "Crop plant compatibility, post-emergence, barley", "details": "17 DAT, individual compound, no safener", "experimental": "as §1, §2, §3"}, "corn (cultivar: Oldham)": {"tested_on": "corn (cultivar: Oldham)", "experiment": "Crop plant compatibility, post-emergence, corn", "details": "17 DAT, individual compound, component A 20 g of ai/ha, no safener", "experimental": "as §1, §2, §3"}, "[2]": {"tested_on": "rice (cultivar: Rice Ballila)", "experiment": "Crop plant compatibility, post-emergence, rice", "details": "individual compound, no safener", "experimental": "as §1, §2, §3"}, "[3]": {"details": "17 DAT, component A 20 g of ai/ha"}}}
{"smiles": "COc1nc(OC)nc(C(O)c2cccc(F)c2NS(=O)(=O)C(F)F)n1", "note": "(centres unmarked) [compound (A-3)]", "values": [{"measurement": "Herbicidal activity in %", "setting": "wheat (cultivar: Triso); 10 DAT, component A 6.7 g of ai/ha", "result": 5, "unit": "%"}, {"measurement": "Herbicidal activity in %", "setting": "wheat (cultivar: Triso); 17 DAT, component A 2.2 g of ai/ha", "result": 8, "unit": "%"}, {"measurement": "Herbicidal activity in %", "setting": "wheat (cultivar: Triso); [3]", "result": 20, "unit": "%"}, {"measurement": "Herbicidal activity in %", "setting": "[1]; component A 6.7 g of ai/ha", "result": 10, "unit": "%"}, {"measurement": "Herbicidal activity in %", "setting": "[1]; component A 20 g of ai/ha", "result": 20, "unit": "%"}, {"measurement": "Herbicidal activity in %", "setting": "corn (cultivar: Oldham)", "result": 30, "unit": "%"}, {"measurement": "Herbicidal activity in %", "setting": "[2]; 10 DAT, component A 2.2 g of ai/ha", "result": 30, "unit": "%"}, {"measurement": "Herbicidal activity in %", "setting": "[2]; [3]", "result": 50, "unit": "%"}]}
